Tested on: HIV-1 NL4-3 viral clone expressing Renilla luciferase
Assay: microbe, parasite or virus in culture
Assay type: cell-based
Settings: Human immunodeficiency virus 1, NL43, MT2, 96 h
Protocol: Protocol for MT-2 Spread Assay
The present assay was used to screen candidate antiviral compounds by quantification of virus spread and production over several rounds of infection in vitro. MT-2, a HIV-1 permissive human T-cell line, was seeded in microtiter plates and was simultaneously treated with serially diluted compound and inoculated with a HIV-1 NL4-3 viral clone engineered to express Renilla luciferase in place of Net Following treatment, the culture was incubated for 96 hours. After the incubation, media was collected and used to estimate relative infectivity on the indicator cell line, TZM-bl. Additionally, viral spread was quantified by measuring luciferase activity via a commercially available luciferase substrate. In parallel, MT-2 cells were seeded and inoculated with mock virus in the presence of serially diluted compound. Compound toxicity was quantified 96 hours after treatment with AlamarBlue.
MT-2 (NIH Aids reagent program 237) cells were grown and maintained in an incubator at 37° C. with 5% CO2 using a basal medium of RPMI-1640 supplemented with 10% FBS. Cells were seeded in 100 μl at 2×10^4 cells/well in white walled 96-well microtiter plates. Candidate compounds were 3-fold serially diluted in the appropriate solvent. Solvent without compound was used as a no drug reference. Cells were inoculated at a multiplicity of 0.027 with an HIV-1 NL4-3 virus stock engineered to express Renilla luciferase in place of Net Diluted virus stock was first added to serially diluted compound. Compound and virus were delivered to cells in an equal volume (100 μl) and treated cultures were returned to the incubator for 96 hours. In parallel, plates for cytotoxicity estimates were prepared in the same way except cells were plated in clear walled 96-well microtiter plates and were mock infected.
At 96 hours post infection, 100 μl virus containing culture supernatant was collected from the treated and infected cultures and serially diluted in DMEM supplemented with 10% FBS, 1% sodium pyruvate, and 20 μg/ml DEAE dextran. One day prior, TZM-bl (ATCC PTA-5659) were cultured in basal medium of DMEM supplemented with 10% FBS and 1% sodium pyruvate and seeded at 7.5×10^3 cells/well in black walled 96-well microtiter plates. Diluted virus containing culture supernatant was transferred to TZM-bl cultures and incubated for 48 hours at 37° C. with 5% CO2. Infected TZM-bl cultures were fixed for 5 minutes with a 1% formaldehyde/0.2% gluteraldehyde/PBS solution then washed three times with PBS. Fixed cultures were incubated at 37° C. for 25 minutes with a 200 μg/ml MUG (4-Methylumbelliferyl β-D-[…])/DMEM solution. The reaction was stopped with an equal volume of 1M sodium carbonate and read at 360, 449 nm on fluorescence plate reader (Biotek).
At 96 hours post infection, 100 μl of culture supernatant was removed from the treated and infected cultures and EnduRen live cell substrate (Promega) was added at a final concentration 1.3 μg/ml. Cells were incubated for 1.5 hours at 37° C. with 5% CO2 then read on a luminescence plate reader (Biotek).
For all assays, data was imported into Accelrys Assay Explorer 3.3. In Assay Explorer, % inhibition (antiviral or cytotoxicity) was calculated using the solvent control as a reference by the following equation: 1−(SignalCompound/SignalReference). The % Inhibition and compound concentration data was fitted using the following 4-parameter logistic model (Assay Explorer model 42):
[formula] where X is compound concentration, Y is % inhibition, D is the maximum % Inhibition (constrained to 100%), C is IC50 value or inflection point, B is the hill slope, and A is the minimum % inhibition (constrained to 0%). The IC50 value is reported as the EC50 or CC50 depending on the assay endpoint. EC50 represents the effective concentration at which virus replication is inhibited by 50 percent. CC50 represents the concentration that results in the death of 50 percent of the host cells. […]

SMILES | EC50 [nM]
COc1cc(C)c(/C=C/C2NCCc3cc(OCc4ccccc4)c(OC)cc32)cc1OCc1ccccc1 (centres unmarked) [AF, 6-benzyloxy-1-[(E)-2-(5-benzyloxy-4-methoxy-2-methyl-phenyl)vinyl]-7-methoxy-1,2,3,4-tetrahydroisoquinoline] | 83
COc1cc2c(cc1OCc1ccccc1)CCNC2/C=C/c1cc2c(cc1C)OCCC2 (centres unmarked) [CE, 6-Benzyloxy-7-methoxy-1-[(E)-2-(7-methylchroman-6-yl)vinyl]-1,2,3,4-tetrahydroisoquinoline] | 125
COc1ccc(/C=C/C2NCCc3cc(OCc4ccccc4)c(OC)cc32)c(C)c1 (centres unmarked) [Example AG, 6-benzyloxy-7-methoxy-1-[(E)-2-(4-methoxy-2-methyl-phenyl)vinyl]-1,2,3,4-tetrahydroisoquinoline] | 77.1
COc1ccc(/C=C/C2c3cc(OC)c(OCc4ccccc4)cc3CCN2C(=O)c2cnccn2)cc1OCc1ccccc1 (centres unmarked) [Example B, [6-Benzyloxy-1-[(E)-2-(3-benzyloxy-4-methoxy-phenyl)vinyl]-7-methoxy-3,4-dihydro-1H-isoquinolin-2-yl]-pyrazin-2-yl-methanone] | 10000
CCOC(=O)c1ccccc1/C=C/C1NCCc2cc(OCc3ccccc3)c(OC)cc21 (centres unmarked) [ET, Ethyl 2-[(E)-2-(6-benzyloxy-7-methoxy-1,2,3,4-tetrahydroisoquinolin-1-yl)vinyl]benzoate] | 2480
COc1cc2c(cc1OCc1ccccc1)CCNC2/C=C/c1cccc2c1OCCC2 (centres unmarked) [CF, 6-Benzyloxy-1-[(E)-2-chroman-8-ylvinyl]-7-methoxy-1,2,3,4-tetrahydroisoquinoline] | 490
COc1cc2c(cc1OCc1ccccc1)CCNC2/C=C/c1c[nH]c2ccccc12 (centres unmarked) [CJ, 6-Benzyloxy-1-[(E)-2-(1H-indol-3-yl)vinyl]-7-methoxy-1,2,3,4-tetrahydroisoquinoline] | 470
COc1cc(C)c(/C=C/C2NCCc3cc(OCc4ccccc4)c(OC)cc32)cc1OC (centres unmarked) [Example AH, 6-benzyloxy-1-[(E)-2-(4,5-dimethoxy-2-methyl-phenyl)vinyl]-7-methoxy-1,2,3,4-tetrahydroisoquinoline] | 13.3
COc1cccc(/C=C/C2NCCc3cc(OCc4ccccc4)c(OC)cc32)c1 (centres unmarked) [EJ, 6-Benzyloxy-7-methoxy-1-[(E)-2-(3-methoxyphenyl)vinyl]-1,2,3,4-tetrahydroisoquinoline] | 2980
COc1ccc(/C=C/C2NCCc3cc(OCc4ccccc4)c(OC)cc32)cc1COCC(F)(F)F (centres unmarked) [EO, 6-Benzyloxy-7-methoxy-1-[(E)-2-[4-methoxy-3-(2,2,2-trifluoroethoxymethyl)phenyl]vinyl]-1,2,3,4-tetrahydroisoquinoline] | 504
COc1cc(/C=C/C2NCCc3cc(OCc4ccccc4)c(OC)cc32)cc(OC)c1 (centres unmarked) [AT, 6-Benzyloxy-1-[(E)-2-(3,5-dimethoxyphenyl)vinyl]-7-methoxy-1,2,3,4-tetrahydroisoquinoline] | 770
COc1cc2c(cc1OCc1ccccc1)CCNC2/C=C/c1ccncc1 (centres unmarked) [AW, 6-Benzyloxy-7-methoxy-1-[(E)-2-(4-pyridyl)vinyl]-1,2,3,4-tetrahydroisoquinoline] | 3280
COc1cc2c(cc1OC)C(/C=C/c1cc(OCc3ccccc3)c(OC)cc1C)NCC2 (centres unmarked) [Example C, 1-[(E)-2-(5-Benzyloxy-4-methoxy-2-methyl-phenyl)vinyl]-6,7-dimethoxy-1,2,3,4-tetrahydroisoquinoline] | 9760
COc1cc2c(cc1OCc1ccccc1)CCNC2/C=C/c1ccnn1C (centres unmarked) [Example AK, 6-benzyloxy-7-methoxy-1-[(E)-2-(2-methylpyrazol-3-yl)vinyl]-1,2,3,4-tetrahydroisoquinoline] | 8870
COc1ccc(/C=C/C2NCCc3cc(OCc4ccccc4)c(OC)cc32)cc1F (centres unmarked) [BF] | 1020
CCCCOc1cc(/C=C/C2NCCc3cc(OCc4ccccc4)c(OC)cc32)ccc1OC (centres unmarked) [BE, 6-Benzyloxy-1-[(E)-2-(3-butoxy-4-methoxy-phenyl)vinyl]-7-methoxy-1,2,3,4-tetrahydroisoquinoline] | 99.8
CCCCOc1ccc(/C=C/C2NCCc3cc(OCc4ccccc4)c(OC)cc32)cc1OC (centres unmarked) [BD, 6-Benzyloxy-1-[(E)-2-(4-butoxy-3-methoxy-phenyl)vinyl]-7-methoxy-1,2,3,4-tetrahydroisoquinoline] | 408
COc1cc2c(cc1OCc1ccccc1)CCNC2/C=C/c1cc2ccccc2n1C(=O)OC(C)(C)C (centres unmarked) [CH, tert-Butyl 2-[(E)-2-(6-benzyloxy-7-methoxy-1,2,3,4-tetrahydroisoquinolin-1-yl)vinyl]indole-1-carboxylate] | 580
COc1cc2c(cc1OCc1ccccc1)CCNC2/C=C/c1ccccc1N (centres unmarked) [CX, 2-[(E)-2-(6-benzyloxy-7-methoxy-1,2,3,4-tetrahydroisoquinolin-1-yl)vinyl]aniline] | 1400
COc1cc2c(cc1OCc1ccccc1)CCNC2/C=C/c1cn(C)c2ncccc12 (centres unmarked) [DP] | 15
COc1cc2c(cc1OCc1ccccc1)CCNC2c1ccccc1CNC(=O)OC(C)(C)C (centres unmarked) [AZ, tert-Butyl N-[[2-(6-benzyloxy-7-methoxy-1,2,3,4-tetrahydroisoquinolin-1-yl)phenyl]methyl]carbamate] | 2770
COC(=O)N1CCc2cc(OCc3ccccc3)c(OC)cc2C1/C=C/c1ccc(OC)c(OCc2ccccc2)c1 (centres unmarked) [Example L, Methyl 6-benzyloxy-1-[(E)-2-(3-benzyloxy-4-methoxy-phenyl)vinyl]-7-methoxy-3,4-dihydro-1H-isoquinoline-2-carboxylate] | 2810
COc1cc2c(cc1OCc1ccccc1)CCNC2/C=C/c1cc(OCc2ccccc2)ccc1C (centres unmarked) [Example AD, 6-benzyloxy-1-[(E)-2-(5-benzyloxy-2-methyl-phenyl)vinyl]-7-methoxy-1,2,3,4-tetrahydroisoquinoline] | 84
COc1cc2c(cc1OCc1ccccc1)CCNC2/C=C/c1ccc(OC)c(C(F)(F)F)c1 (centres unmarked) [CY, (E)-6-(Benzyloxy)-7-methoxy-1-(4-methoxy-3-(trifluoromethyl)styryl)-1,2,3,4-tetrahydroisoquinoline] | 697
COc1ccc(/C=C/C2NCCc3cc(OCc4ccccc4)c(OC)cc32)cc1OC (centres unmarked) [BQ, 6-Benzyloxy-1-[(E)-2-(3,4-dimethoxyphenyl)vinyl]-7-methoxy-1,2,3,4-tetrahydroisoquinoline] | 198
COc1cc2c(cc1OCc1ccccc1)CCNC2/C=C/c1ccc(C(=O)O)cc1 (centres unmarked) [EQ, 4-[(E)-2-(6-benzyloxy-7-methoxy-1,2,3,4-tetrahydroisoquinolin-1-yl)vinyl]benzoic acid] | 7040
COc1cc2c(cc1OCc1ccccc1)CCNC2/C=C/c1ccc(S(C)(=O)=O)cc1 (centres unmarked) [BZ, 6-Benzyloxy-7-methoxy-1-[(E)-2-(4-methylsulfonylphenyl)vinyl]-1,2,3,4-tetrahydroisoquinoline] | 1000
COc1cc2c(cc1OCc1ccccc1)CCNC2/C=C/c1ccccc1N1CCOCC1 (centres unmarked) [DH, (E)-4-(2-(2-(6-(benzyloxy)-7-methoxy-1,2,3,4-tetrahydroisoquinolin-1-yl)vinyl)phenyl)morpholine] | 5260
COc1cc(C)c(/C=C/C2c3cc(OC)c(OCc4ccccc4)cc3CCN2C(=O)NC(C)(C)C)cc1OCc1ccccc1 (centres unmarked) [Example O, 6-benzyloxy-1-[(E)-2-(5-benzyloxy-4-methoxy-2-methyl-phenyl)vinyl]-N-tert-butyl-7-methoxy-3,4-dihydro-1H-isoquinoline-2-carboxamide] | 2010

— patent US10195189B2, “2-phenethenyltetrahydro isoquinolines useful as anti-HIV compounds” (priority 2014, dated 2019)
